Experimental data taken from patent US20140323500A1, “NADPH OXIDASE 4 INHIBITORS AND USE THEREOF” (GENKYOTEX SA, priority 2011, published 2014).
pKi: −log10 of the molar value.

Target: T1, human Nox2 (Homo sapiens, UniProt P04839)
T1 construct: host or cells: T-REx-CHO (hNOX2 T-REx-CHO), tetracycline-induced; membrane fraction
T1 sequence (P04839 2-570 limits assumed): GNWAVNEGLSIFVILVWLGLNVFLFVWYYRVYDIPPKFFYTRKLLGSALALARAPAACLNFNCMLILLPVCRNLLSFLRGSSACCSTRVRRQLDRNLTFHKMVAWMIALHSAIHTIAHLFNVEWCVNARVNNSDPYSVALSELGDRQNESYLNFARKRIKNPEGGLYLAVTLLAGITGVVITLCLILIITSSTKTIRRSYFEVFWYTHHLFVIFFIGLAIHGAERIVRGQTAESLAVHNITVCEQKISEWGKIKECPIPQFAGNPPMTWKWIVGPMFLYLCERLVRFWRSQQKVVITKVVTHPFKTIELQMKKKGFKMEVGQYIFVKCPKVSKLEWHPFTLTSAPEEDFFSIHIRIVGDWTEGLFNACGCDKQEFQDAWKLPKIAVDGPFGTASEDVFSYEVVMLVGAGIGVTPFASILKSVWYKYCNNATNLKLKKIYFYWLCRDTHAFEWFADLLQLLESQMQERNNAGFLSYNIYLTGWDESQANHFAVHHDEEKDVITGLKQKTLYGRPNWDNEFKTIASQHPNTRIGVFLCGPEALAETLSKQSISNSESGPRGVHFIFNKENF
T1 sequence (P13498 2-195 partner limits assumed): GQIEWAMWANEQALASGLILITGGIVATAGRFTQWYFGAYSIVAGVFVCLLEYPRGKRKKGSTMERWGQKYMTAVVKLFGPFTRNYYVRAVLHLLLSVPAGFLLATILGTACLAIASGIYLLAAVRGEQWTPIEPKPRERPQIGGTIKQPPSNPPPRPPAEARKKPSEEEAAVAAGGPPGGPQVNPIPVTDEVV
Experiment: ROS production by membranes expressing human Nox2, cell-free Amplex Red assay
Type: biochemical
Conditions: cell-free membranes, Amplex Red; Cheng-Prusoff; average of at least three experiments in triplicate; read-out: Ki hNox2
Outline: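 Membranes from tetracycline-induced (1 μg/ml, 24 h) T-REx-CHO cells stably expressing hNox2 with p22 and cofactors, incubated in PBS with Amplex Red, HRP and cofactors; NADPH starts ROS production. Compounds 1 nM–100 μM, 20 min at 37 °C, then fluorescence (544/590 nm) read for 10 min; Ki by Cheng-Prusoff.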

pKi: 6.09
SMILES: COc1ccc(-c2c3c(=O)n(-c4ccccc4OC)[nH]c3cc(=O)n2Cc2cccnc2)c(F)c1 [Compound (1), 4-(2-fluoro-4-methoxyphenyl)-2-(2-methoxyphenyl)-5-(pyridin-3-ylmethyl)-1H-pyrazolo[4,3-c]pyridine-3,6(2H,5H)-dione]
